# Measured values: the SangsterLogP compilation
# Experiment: method code SF-AS, from DOI: 10.1021/je200827u
# Details: pH 5.8
row,SMILES,logD
1,CCSc1nc2ccccc2n1CC,3.43
2,O=[N+]([O-])c1cc(CSc2nc3ccccc3[nH]2)cc([N+](=O)[O-])c1,3.14
3,CCSc1nc2ccccc2[nH]1,2.67

# More lines, now with the values ahead:
row,logD,SMILES
1,3.25,CC(C)Sc1nc2ccccc2[nH]1
2,0.22,O=C(NN=C1CCCC1)c1ccncc1
3,0.74,CC1CCC(=NNC(=O)c2ccncc2)CC1 (stereo unspecified)

# Experiment: not given
# Details: not given
row,SMILES,logP
1,c1ccc(C(Sc2nc3ccccc3[nH]2)c2ccccc2)cc1,4.9
2,c1ccc(CSc2nc3ccccc3[nH]2)cc1,3.92

# Other lines, results leading:
row,logP,SMILES
1,-0.57,NNC(=O)c1ccnc(NN)c1
2,-0.87,CC(=O)NNC(=O)c1ccncc1
3,0.27,O=C(NN=C1CCCCC1)c1ccncc1
